# In publication PMC9090415, “Discovery of small molecule inhibitors of Plasmodium falciparum apicoplast DNA polymerase” (Journal of Enzyme Inhibition and Medicinal Chemistry, 2022):
# Molecular target: P. falciparum apicoplast DNA polymerase (Pf-apPOL) (Plasmodium falciparum, UniProt Q8ILY1)
# Assay: Fluorescence-based high-throughput DNA polymerase assay (molecular beacon), primary screen and dose-response
# Format: biochemical
# Procedure: The HT assay employs a molecular beacon, a stem-loop DNA template with a Cy3 dye and the Black Hole Quencher on the 3′ and 5′ ends of the DNA, respectively. Pf-apPOL concentration is based on a calculated absorptivity of ε280 = 56750 M^−1 cm^−1. Reactions were carried out at 25 °C, using Corning 3575 […] (well-volume, 20 µL). Assays testing for compound inhibition composed of reaction buffer (pH 7.9 in 50 mM potassium acetate, 20 mM Tris-acetate and 10 mM magnesium acetate), Pf-apPOL (20 nM), DNA substrate (20 nM), dNTPs (6 µM), and compound (10 µM in DMSO). The DNA and nucleotide substrates (dNTPs) were at concentrations of 20 nM and 6 µM, respectively, in the assay. Pf-apPOL was incubated in the reaction buffer with dNTPs and the compound of interest (10 µM, in the assay) at 25 °C for 10 min. The DNA substrate was then added and the reaction was allowed to proceed for 90 min at 25 °C.
# Each assay plate contained 16 negative controls (no Pf-apPOL, DMSO present) and 16 positive controls (Pf-apPOL present, no DMSO). The fluorescence of each well was determined using a BioTek Synergy Neo fluorescence plate reader using excitation and emission wavelengths of 555 and 570 nm, respectively.
# In the above, Min is the average of fluorescence emission of the negative controls (substrate only), Max the average fluorescence emission from the positive controls (enzyme + substrate), and Test the emission from the assays in the presence of compounds (enzyme + compound + substrates). […] […] The IC50 of each compound was determined using Equation (2): (2) IC50= Vmax/(1+ (I/IC50)^n)
# In the above, n measures cooperativity, with n > 1 indicating synergistic binding of more than a single molecule of the compound.
# To identify apPOL inhibitors we utilised our previously developed high-throughput DNA polymerase assay. The HT assay is based on a molecular beacon DNA template that forms a stem-loop with a Cy3 dye and the Black Hole Quencher on the 3′ and 5′ ends of the DNA, respectively. DNA polymerase activity extends an annealed primer through the stem region, displacing the fluorophore from the quencher, thereby increasing its fluorescence (Figure 1(A)). The assay accurately recapitulates the kinetic behaviour of apPOL, as measured through more conventional low-throughput gel-based assays. The Z′ factor for the assay described here was 0.9 across all plates (data not shown).
# Figure 1. High-throughput screening. (A) The fluorescent-based DNA polymerase assay used to screen the compound libraries. The DNA template strand is a hairpin loop with a primer annealed to the loop. The 3’ end of the primer is 11 bases away from the 6 bp duplex. Strand displacement activity of the DNA polymerase separates the Cy3 dye from the Black hole quencher leading to an increase in fluorescent signal. (B) The high-throughput assay workflow. The DNA polymerase is incubated with […] compound for 10 min prior to addition of the hairpin substrate. The reaction is quenched at 3 different time points and the fluorescent signal is measured and % inhibition is determined using the provided equation.
# P. falciparum apicoplast DNA polymerase (Pf-apPOL), sequence (Q8ILY1 entry or part of it): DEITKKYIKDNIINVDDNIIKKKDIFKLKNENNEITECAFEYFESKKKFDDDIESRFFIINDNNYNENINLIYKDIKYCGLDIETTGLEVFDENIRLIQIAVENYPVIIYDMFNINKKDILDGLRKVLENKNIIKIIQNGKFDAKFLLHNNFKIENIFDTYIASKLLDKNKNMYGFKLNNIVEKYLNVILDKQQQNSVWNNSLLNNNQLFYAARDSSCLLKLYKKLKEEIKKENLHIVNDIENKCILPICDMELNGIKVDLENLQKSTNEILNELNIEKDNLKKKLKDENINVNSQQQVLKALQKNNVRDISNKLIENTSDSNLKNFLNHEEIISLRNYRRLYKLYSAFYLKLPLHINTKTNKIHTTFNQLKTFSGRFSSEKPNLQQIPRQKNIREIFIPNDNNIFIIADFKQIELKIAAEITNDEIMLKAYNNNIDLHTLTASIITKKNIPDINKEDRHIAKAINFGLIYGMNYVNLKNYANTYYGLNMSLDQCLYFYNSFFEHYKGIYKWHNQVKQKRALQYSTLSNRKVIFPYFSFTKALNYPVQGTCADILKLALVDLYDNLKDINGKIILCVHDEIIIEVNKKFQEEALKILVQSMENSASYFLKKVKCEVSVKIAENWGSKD
compound,measurement,setting,value
CN(C)C1C(c2ccccc2)=C(c2ccccc2)SC(c2ccccc2)C1[N+](=O)[O-] (stereo not shown) [KU0268387],% inhibition Apo pol 10',DRC-1; 10'; concentration 2.5,4.043%
same,% inhibition Apo pol 10',DRC-1; 10'; concentration 5,23.3831%
same,% inhibition Apo pol 10',DRC-1; 10'; concentration 10,45.0315%
same,% inhibition Apo pol 10',DRC-1; 10'; concentration 20,49.4618%
same,% inhibition Apo pol 10',DRC-1; 10'; concentration 40,64.8423%
same,% inhibition Apo pol 10',DRC-1; 10'; concentration 80,77.5449%
same,% inhibition Apol 90',DRC-1; 90'; concentration 2.5,3.398%
same,% inhibition Apol 90',DRC-1; 90'; concentration 5,22.5056%
same,% inhibition Apol 90',DRC-1; 90'; concentration 10,44.0197%
same,% inhibition Apol 90',DRC-1; 90'; concentration 20,52.549%
same,% inhibition Apol 90',DRC-1; 90'; concentration 40,68.5649%
same,% inhibition Apol 90',DRC-1; 90'; concentration 80,83.9893%
same,% inhibition apPOL 180',DRC-1; 180'; concentration 2.5,1.708%
same,% inhibition apPOL 180',DRC-1; 180'; concentration 5,12.7714%
same,% inhibition apPOL 180',DRC-1; 180'; concentration 10,32.8138%
same,% inhibition apPOL 180',DRC-1; 180'; concentration 20,41.7834%
same,% inhibition apPOL 180',DRC-1; 180'; concentration 40,60.315%
same,% inhibition apPOL 180',DRC-1; 180'; concentration 80,80.8354%
same,% inhibition Apol 40',"DRC-2, 40', concentration 20 (unit not given)",53%
same,% inhibition ApPOL 90',"DRC-2, 90', concentration 20 (unit not given)",53%
same,% inhibition apPOL 180',"DRC-2, 180', concentration 20 (unit not given)",47%
same,% inhibition Apo pol 5',DRC-2; 5'; concentration 2.5,0.589%
same,% inhibition Apo pol 5',DRC-2; 5'; concentration 5,19%
same,% inhibition Apo pol 5',DRC-2; 5'; concentration 10,32%
same,% inhibition Apo pol 5',DRC-2; 5'; concentration 20,40%
same,% inhibition Apo pol 5',DRC-2; 5'; concentration 40,42%
same,% inhibition Apo pol 5',DRC-2; 5'; concentration 80,47%
same,% inhibition Apo pol 5',DRC-2; 5'; concentration 80 (unit not given),47%
same,% inhibition Apol 40',DRC-2; 40'; concentration 2.5,1.84%
same,% inhibition Apol 40',DRC-2; 40'; concentration 5,25%
same,% inhibition Apol 40',DRC-2; 40'; concentration 10,39%
same,% inhibition Apol 40',DRC-2; 40'; concentration 20,53%
same,% inhibition Apol 40',DRC-2; 40'; concentration 40,60%
same,% inhibition Apol 40',DRC-2; 40'; concentration 80,68%
same,% inhibition ApPOL 90',DRC-2; 90'; concentration 2.5,0.484%
same,% inhibition ApPOL 90',DRC-2; 90'; concentration 5,23%
same,% inhibition ApPOL 90',DRC-2; 90'; concentration 10,38%
same,% inhibition ApPOL 90',DRC-2; 90'; concentration 20,53%
same,% inhibition ApPOL 90',DRC-2; 90'; concentration 40,62%
same,% inhibition ApPOL 90',DRC-2; 90'; concentration 80,71%
same,% inhibition apPOL 180',DRC-2; 180'; concentration 2.5,-3.51%
same,% inhibition apPOL 180',DRC-2; 180'; concentration 5,15%
same,% inhibition apPOL 180',DRC-2; 180'; concentration 10,31%
same,% inhibition apPOL 180',DRC-2; 180'; concentration 20,47%
same,% inhibition apPOL 180',DRC-2; 180'; concentration 40,58%
same,% inhibition apPOL 180',DRC-2; 180'; concentration 80,70%
same,DNA Pol,"primary screen value of the 186 hits; unit not given; 90 min, 10 µM",78
same,DNA Pol,"primary screen value, head ""DNA Pol"", unit not given; 90 min, 10 µM",78
"CN(C)C=CC(=O)c1ccccn1 [Molecule 64, CN(C=CC(=O)c1ccccn1)C]",DNA Pol,"'DNA Pol'; screening value, unit not given; 90 min, 10 µM",79
same,% inhibition Apo pol 10',DRC-1; 10'; concentration 2.5,5.279%
same,% inhibition Apo pol 10',DRC-1; 10'; concentration 5,16.5803%
same,% inhibition Apo pol 10',DRC-1; 10'; concentration 10,34.5693%
same,% inhibition Apo pol 10',DRC-1; 10'; concentration 20,50.9232%
same,% inhibition Apo pol 10',DRC-1; 10'; concentration 40,69.0219%
same,% inhibition Apo pol 10',DRC-1; 10'; concentration 80,79.1475%
same,% inhibition Apol 90',DRC-1; 90'; concentration 2.5,1.734%
same,% inhibition Apol 90',DRC-1; 90'; concentration 5,6.501%
same,% inhibition Apol 90',DRC-1; 90'; concentration 10,20.4436%
same,% inhibition Apol 90',DRC-1; 90'; concentration 20,33.6237%
same,% inhibition Apol 90',DRC-1; 90'; concentration 40,52.2034%
same,% inhibition Apol 90',DRC-1; 90'; concentration 80,65.606%
same,% inhibition apPOL 180',DRC-1; 180'; concentration 2.5,-0.4261%
same,% inhibition apPOL 180',DRC-1; 180'; concentration 5,-0.5089%
same,% inhibition apPOL 180',DRC-1; 180'; concentration 10,10.9691%
same,% inhibition apPOL 180',DRC-1; 180'; concentration 20,21.4909%
same,% inhibition apPOL 180',DRC-1; 180'; concentration 40,39.455%
same,% inhibition apPOL 180',DRC-1; 180'; concentration 80,54.1589%
same,% inhibition Apo pol 5',"DRC-2, 5', concentration 2.5",10%
same,% inhibition Apo pol 5',"DRC-2, 5', concentration 5",18%
same,% inhibition Apo pol 5',"DRC-2, 5', concentration 10",34%
same,% inhibition Apo pol 5',"DRC-2, 5', concentration 20",44%
same,% inhibition Apo pol 5',"DRC-2, 5', concentration 40",50%
same,% inhibition Apo pol 5',"DRC-2, 5', concentration 80",54%
same,% inhibition Apol 40',"DRC-2, 40', concentration 2.5",6%
same,% inhibition Apol 40',"DRC-2, 40', concentration 5",12%
same,% inhibition Apol 40',"DRC-2, 40', concentration 10",27%
same,% inhibition Apol 40',"DRC-2, 40', concentration 20",41%
same,% inhibition Apol 40',"DRC-2, 40', concentration 40",53%
same,% inhibition Apol 40',"DRC-2, 40', concentration 80",64%
same,% inhibition ApPOL 90',"DRC-2, 90', concentration 2.5",0.656%
same,% inhibition ApPOL 90',"DRC-2, 90', concentration 5",7%
same,% inhibition ApPOL 90',"DRC-2, 90', concentration 10",21%
same,% inhibition ApPOL 90',"DRC-2, 90', concentration 20",36%
same,% inhibition ApPOL 90',"DRC-2, 90', concentration 40",50%
same,% inhibition ApPOL 90',"DRC-2, 90', concentration 80",65%
same,% inhibition apPOL 180',"DRC-2, 180', concentration 2.5",-5%
same,% inhibition apPOL 180',"DRC-2, 180', concentration 5",-1.23%
same,% inhibition apPOL 180',"DRC-2, 180', concentration 10",9%
same,% inhibition apPOL 180',"DRC-2, 180', concentration 20",23%
same,% inhibition apPOL 180',"DRC-2, 180', concentration 40",42%
same,% inhibition apPOL 180',"DRC-2, 180', concentration 80",63%
same,% inhibition Apo pol 5',conc 40 (unit not given); 5'; DRC-2,50%
same,% inhibition ApPOL 90',conc 40 (unit not given); 90'; DRC-2,50%
same,DNA Pol,"primary screen hit value, DNA Pol (186 hits); 90 min, 10 µM",79
